The values that follow are results of earlier work, collected in patent publication US20150150814A1, “STABLE ORAL PHARMACEUTICAL COMPOSITION OF SOLIFENACIN” (RANBAXY LABORATORIES LIMITED, priority 2013, published 2015).

Each structure is given as a SMILES string.

The conditions of the data set: water at room temperature.

Consider `O=C(O[C@H]1CN2CCC1CC2)N1CCc2ccccc2[C@@H]1c1ccccc1` [Solifenacin succinate, (1S)-(3R)-1-azabicyclo [2.2.2] oct-3-yl3,4-dihydro-1-phenyl-2(1H)iso-quinolinecarboxylate], for which the solubility in water entry is listed as “freely soluble”.
